Test results: patent US4068074A, “Cephalosporin derivatives having at the 3-position of the cephem ring a heterocyclic thiomethyl group with a carboxy or sulfo group and at the 7-position of the cephem ring an α-heterocylic acylaminophenyl-acetamide group” (priority 1974, dated 1978)
Values after ≈ are worked out from the molar mass of the structure shown. Read-outs that look alike come from different tables or passages of the source.

Key:
Format in all cases: cell-based
[1] = system: Proteus vulgaris OXK US; experiment: MIC against bacteria (Table I), strain (1); settings: (1) Proteus vulgaris OXK US; read-out: MIC
Source text: (§1) Now, for illustrating the excellent pharmacological effects of the compounds of this invention, the values of MIC (γ/ml.) of the compounds against various bacteria are shown in Table 1, in which the compounds of this invention used are shown by example numbers.
(1) Proteus vulgaris OXK US

[2] = system: Proteus vulgaris 0X 19US; experiment: MIC against bacteria (Table I), strain (2); settings: 0X19US
Source text: as §1
(2) Proteus vulgaris 0X 19US

[3] = system: Proteus mirabilis IXM OM-19; experiment: MIC against bacteria (Table I), strain (3); settings: IXMOM19
Source text: as §1
(3) Proteus mirabilis IXM OM-19

[4] = system: Pseudomonas aeruginosa ATCC 8689; experiment: MIC against bacteria (Table I), strain (4); settings: ATCC8689; (4) Pseudomonas aeruginosa ATCC 8689; read-out: MIC
Source text: as §1
(4) Pseudomonas aeruginosa ATCC 8689

[5] = system: Pseudomonas aeruginosa 99 (Gentamycin resistant); experiment: MIC against bacteria (Table I), strain (5)
Source text: as §1
(5) Pseudomonas aeruginosa 99 (Gentamycin resistant)

[6] = system: Psuedomonas ovalis IMA 1002; experiment: MIC against bacteria (Table I), strain (6); settings: (6) Psuedomonas ovalis IMA 1002; read-out: MIC
Source text: as §1
(6) Psuedomonas ovalis IMA 1002

[7] = system: Escherichia coli kauffmann 0-1; experiment: MIC against bacteria (Table I), strain (7); settings: Escherichia coli
Source text: as §1
(7) Escherichia coli kauffmann 0-1

[8] = system: Klebsiella pneumoniae ATCC 10031; experiment: MIC against bacteria (Table I), strain (8); settings: ATCC10031; (8) Klebsiella pneumoniae ATCC 10031; read-out: MIC
Source text: as §1
(8) Klebsiella pneumoniae ATCC 10031

[9] = system: Salmonella typhi H901 W; experiment: MIC against bacteria (Table I), strain (9); settings: Salmonella enterica, TYPHI
Source text: as §1
(9) Salmonella typhi H901 W

[10] = system: Salmonella enteritidis; experiment: MIC against bacteria (Table I), strain (10); settings: Salmonella enterica
Source text: as §1
(10) Salmonella enteritidis

[11] = system: Shigella flexneri 2a 1675; experiment: MIC against bacteria (Table I), strain (11); settings: 2A1675; (11) Shigella flexneri 2a 1675; read-out: MIC
Source text: as §1

[12] = system: Shigella sonnei II 37148; experiment: MIC against bacteria (Table I), strain (12); settings: II37148; (12) Shigella sonnei II 37148; read-out: MIC
Source text: as §1

[13] = system: Bacillus megatherium 10778; experiment: MIC against bacteria (Table I), strain (13)
Source text: as §1

[14] = system: Bacillus subtilis ATCC 6633; experiment: MIC against bacteria (Table I), strain (14); settings: ATCC6633
Source text: as §1
(14) Bacillus subtilis ATCC 6633

[15] = system: Micrococcus flavus ATCC 10240; experiment: MIC against bacteria (Table I), strain (15); settings: ATCC10240
Source text: as §1
(15) Micrococcus flavus ATCC 10240

[16] = system: Staphylococcus aureus 209P; experiment: MIC against bacteria (Table I), strain (16)
Source text: as §1
(16) Staphylococcus aureus 209P

[17] = system: Staphylococcus Shimanishi; experiment: MIC against bacteria (Table I), strain (17)
Source text: as §1
(17) Staphylococcus Shimanishi

[18] = system: Staphylococcus Onuma; experiment: MIC against bacteria (Table I), strain (18); settings: (18) Staphylococcus Onuma; read-out: MIC
Source text: as §1
(18) Staphylococcus Onuma

[19] = (2) Proteus vulgaris 0X 19US, read-out: MIC
[20] = (3) Proteus mirabilis IXM OM-19, read-out: MIC
[21] = (5) Pseudomonas aeruginosa 99 (Gentamycin resistant), read-out: MIC
[22] = (10) Salmonella enteritidis, read-out: MIC
[23] = (13) Bacillus megatherium 10778, read-out: MIC
[24] = (14) Bacillus subtilis ATCC 6633, read-out: MIC
[25] = (15) Micrococcus flavus ATCC 10240, read-out: MIC
[26] = (17) Staphylococcus Shimanishi, read-out: MIC
[27] = (16) Staphylococcus aureus 209P, read-out: MIC

Structure (SMILES)	MIC [1]	MIC [2, 19]	MIC [3, 20]	MIC [4]	MIC [5, 21]	MIC [6]	MIC [7]	MIC [8]	MIC [9]	MIC [10, 22]	MIC [11]	MIC [12]	MIC [13, 23]	MIC [14, 24]	MIC [15, 25]	MIC ([16]; Staphylococcus aureus, 209P)	MIC [17, 26]	MIC [18]	MIC [16, 27]	MIC ([14]; Bacillus subtilis)	also measured
Cc1nc(SCC2=C(C(=O)O)N3C(=O)[C@@H](NC(=O)[C@H](NC(=O)c4cnccc4O)c4ccccc4)[C@H]3SC2)sc1C(=O)O [Example 14, 7-[D-α-(4-hydroxynicotinoylamido)-α-phenylacetamido]-3-(4-methyl-5-carboxythiazol-2-yl)thiomethyl-Δ^3-cephem-4-carboxylic acid]	0.19 µg/mL (≈ 0.296 µM)	0.78 µg/mL (≈ 1.22 µM)	0.19 µg/mL (≈ 0.296 µM)	25 µg/mL (≈ 39 µM)	12.5 µg/mL (≈ 19.5 µM)	25 µg/mL (≈ 39 µM)	3.13 µg/mL (≈ 4.88 µM)	6.25 µg/mL (≈ 9.74 µM)	1.56 µg/mL (≈ 2.43 µM)	0.78 µg/mL (≈ 1.22 µM)	1.56 µg/mL (≈ 2.43 µM)	3.13 µg/mL (≈ 4.88 µM)	0.39 µg/mL (≈ 0.608 µM)	0.78 µg/mL (≈ 1.22 µM)	6.25 µg/mL (≈ 9.74 µM)	1.56 µg/mL (≈ 2.43 µM)	12.5 µg/mL (≈ 19.5 µM)	12.5 µg/mL (≈ 19.5 µM)			
CC(=O)OCC1=C(C(=O)O)N2C(=O)[C@@H](NC(=O)[C@H](N)c3ccccc3)[C@H]2SC1 [Cephaloglycin, reference compound]	25 µg/mL (≈ 61.7 µM)	100 µg/mL (≈ 247 µM)	100 µg/mL (≈ 247 µM)	> 100 µg/mL		> 100 µg/mL	100 µg/mL (≈ 247 µM)	25 µg/mL (≈ 61.7 µM)	3 µg/mL (≈ 7.4 µM)	3 µg/mL (≈ 7.4 µM)	3 µg/mL (≈ 7.4 µM)	10 µg/mL (≈ 24.7 µM)	1 µg/mL (≈ 2.47 µM)	0.3 µg/mL (≈ 0.74 µM)	0.3 µg/mL (≈ 0.74 µM)		3 µg/mL (≈ 7.4 µM)	3 µg/mL (≈ 7.4 µM)	1 µg/mL (≈ 2.47 µM)		MIC ([5]; Pseudomonas aeruginosa): > 100 µg/mL
O=C(O)Cc1nnc(SCC2=C(C(=O)O)N3C(=O)[C@@H](NC(=O)[C@H](NC(=O)c4csccc4=O)c4ccc(O)cc4)[C@H]3SC2)s1 [Example 32, 7-[D-α-(4-thiopyrone-3-carboxamido)-α-p-hydroxyphenylacetamido]-3-[5-carboxymethyl-1,3,4-thiadiazol-2-yl]thiomethyl-Δ^3-cephem-4-carboxylic acid]	< 0.09 µg/mL			50 µg/mL (≈ 74 µM)	25 µg/mL (≈ 37 µM)	50 µg/mL (≈ 74 µM)	3.13 µg/mL (≈ 4.63 µM)	6.25 µg/mL (≈ 9.25 µM)	1.56 µg/mL (≈ 2.31 µM)		0.78 µg/mL (≈ 1.15 µM)	3.13 µg/mL (≈ 4.63 µM)				1.56 µg/mL (≈ 2.31 µM)		6.25 µg/mL (≈ 9.25 µM)		0.78 µg/mL (≈ 1.15 µM)	MIC ([2]; Proteus vulgaris): 3.13 µg/mL (≈ 4.63 µM); MIC ([3]; Proteus mirabilis): 0.78 µg/mL (≈ 1.15 µM); MIC ([10]; ENTERITIDIS): 1.56 µg/mL (≈ 2.31 µM); MIC ([13]; Bacillus, 10778): 0.78 µg/mL (≈ 1.15 µM); MIC ([15]; Micrococcus flavus): 3.13 µg/mL (≈ 4.63 µM); MIC ([17]; Staphylococcus): 3.13 µg/mL (≈ 4.63 µM)
CSc1ccc2c(=O)c(C(=O)N[C@@H](C(=O)N[C@@H]3C(=O)N4C(C(=O)O)=C(CSc5nnc(SCC(=O)O)s5)CS[C@H]34)c3ccccc3)c[nH]c2c1 [Example 12, 7-[D-α-(7-methylthio-4-quinolon-3-ylcarboxamido)-α-phenylacetamido]-3-(5-carboxymethylthio-1,3,4-thiadiazol-2yl)thiomethyl-Δ^3-cephem-4-carboxylic acid]	0.19 µg/mL (≈ 0.246 µM)	0.19 µg/mL (≈ 0.246 µM)	0.39 µg/mL (≈ 0.506 µM)	25 µg/mL (≈ 32.4 µM)	12.5 µg/mL (≈ 16.2 µM)	25 µg/mL (≈ 32.4 µM)	6.25 µg/mL (≈ 8.11 µM)	0.39 µg/mL (≈ 0.506 µM)	0.19 µg/mL (≈ 0.246 µM)	0.19 µg/mL (≈ 0.246 µM)	1.56 µg/mL (≈ 2.02 µM)	3.13 µg/mL (≈ 4.06 µM)	0.39 µg/mL (≈ 0.506 µM)					6.25 µg/mL (≈ 8.11 µM)	0.78 µg/mL (≈ 1.01 µM)	3.13 µg/mL (≈ 4.06 µM)	MIC ([15]; Micrococcus flavus): 3.13 µg/mL (≈ 4.06 µM); MIC ([17]; Staphylococcus): 3.13 µg/mL (≈ 4.06 µM)
O=C(O)Cn1nnnc1SCC1=C(C(=O)O)N2C(=O)[C@@H](NC(=O)[C@H](NC(=O)c3cnccc3O)c3ccccc3)[C@H]2SC1 [Example 15, 7-[D-α-(4-hydroxynicotinoylamido)-α-phenylacetamido]-3-(1-carboxymethyltetrazol-5-yl)-thiomethyl-Δ^3-cephem-4-carboxylic acid]	0.19 µg/mL (≈ 0.303 µM)	0.39 µg/mL (≈ 0.622 µM)	< 0.09 µg/mL	25 µg/mL (≈ 39.9 µM)	6.25 µg/mL (≈ 9.97 µM)	12.5 µg/mL (≈ 19.9 µM)	6.25 µg/mL (≈ 9.97 µM)	6.25 µg/mL (≈ 9.97 µM)	3.13 µg/mL (≈ 4.99 µM)	0.78 µg/mL (≈ 1.24 µM)	3.13 µg/mL (≈ 4.99 µM)	3.13 µg/mL (≈ 4.99 µM)	0.39 µg/mL (≈ 0.622 µM)	0.39 µg/mL (≈ 0.622 µM)	25 µg/mL (≈ 39.9 µM)	3.13 µg/mL (≈ 4.99 µM)	12.5 µg/mL (≈ 19.9 µM)	25 µg/mL (≈ 39.9 µM)			
